Test results from patent US7674771B2, “Antimicrobial peptides and utilization of the same” (Toagosei Co., Ltd, priority 2003, dated 2010).
Where two headings read alike, the source gives them in different places. Ends that are not written are not given here. Peptide text beside a SMILES is read from it.

Columns and labels:
S. aureus = type: cell-based, Staphylococcus aureus
Protocol: (§1) First, a drug (synthesized polypeptide) solution having a concentration of 40 times of the highest test concentration was prepared using sterile distilled water, and liquid-bouillon mediums (more specifically, “Mueller Hinton Broth” manufactured by DIFCO) including cation and having drug concentrations of 100, 50, 25, 12.5, 6.3, 3.1, 1.6 and 0.8 μM were respectively produced. The cation included was prepared as follows: dissolving 3.68 g of CaCl2.2H2O in 100 mL of purified water (10 mg.Ca^2+/mL), and thereafter adding 500 μL thereof into 100 mL of Mueller Hinton Broth; and dissolving 8.36 g of MgCl2.6H2O in 100 mL of purified water (10 mg.Mg^2+/mL), and thereafter adding 250 μL thereof into 100 mL of Mueller Hinton Broth. Thereafter, the produced liquid-bouillon mediums including the drug of each concentration were then fed to the 96-well microplate at […] a time.
(§2) At the same time, test bacteria cultured for 18 hours at 37° C. on an agar plate (“Muller Hinton Agar” manufactured by DIFCO) were gathered by scratching with a loop, and then suspended in a sterilized physiological saline. Bacterial suspension 5 μL prepared at an equivalent of 2×10^7 cells/mL was respectively inoculated (number of bacteria to be tested: approximately 1×10^6 cells/mL) onto the drug solution and fed to each well of the above-described microplate. After inoculation, the microplate was then incubated in an incubator at 37° C., and the presence of bacteria was evaluated based on the turbidity 24 hours later. The minimum drug concentration (polypeptide concentration), in which an increased in turbidity caused by bacteria was not detected at the time of measurement, was defined as MIC (minimum inhibitory concentration) (unit: μM) in the present embodiment. In addition, MIC were determined in the same manner using polymyxin B as a comparison.
Next, the antimicrobial activities (MIC) against gram-positive bacteria (S. aureus) in the presence of serum were tested with the same method as Example 2. […] Thereafter, the produced liquid-bouillon mediums including the drug and the serum of each concentration were then fed to the 96-well microplate at […] a time, and MIC were determined by the method same as Example 2. Sample X in the table is a mixture of sample 1 and sample 16 based on a mass ratio of 1:1. “-” in the table indicate “untested”.

[1] = system: Staphylococcus aureus IFO 12732; type: cell-based
Protocol: (§3) Regarding the antimicrobial peptide (samples 1 to 20) related to the present invention, the antimicrobial activities (minimum inhibitory concentration: MIC) with respect to gram-negative bacteria (Escherichia coli IFO 3972) and gram-positive bacteria (Staphylococcus aureus IFO 12732) were determined by a liquid medium dilution technique using a 96-well microplate.
as §1, §2

[2] = system: Escherichia coli IFO 3972; assay: MIC by liquid medium dilution technique, 96-well microplate, gram-negative bacteria; type: cell-based
Protocol: as §3, §1, §2

[3] = system: methicillin-resistant Staphylococcus aureus (MRSA, No. 164 strain); assay: Treatment effect test on mice infected by MRSA, bacterial count in intestine content; type: in vivo; conditions: oral 100 mg/kg
Protocol: The following test was performed to evaluate the treatment effect on mice infected by bacterial (MRSA) of sample 22 obtained by synthesis.
Mice (ICR, SLC, male, 5 weeks old) were prepared by rearing on drinking water mixed with amphotericin B (AMPH: product of Bristol-Myers Company) and tetracycline, such that their concentrations are 10 μg/mL (AMPH) and 2000 μg/mL (tetracycline) respectively, a week before the start of the test, and the immunity of the mice was weaken by administrating 200 mg/kg amount of cyclophosphamide into the abdominal for 3 days from the fourth day prior to the test.
Bacterial suspension prepared by suspending methicillin-resistant Staphylococcus aureus (MRSA, No. 164 strain) in 10% (w/v) of mucin solution was orally administered to the mice at a bacterial administration quantity of 10^8 cells/mouse, thereby eliciting MRSA infection.
One hour after the bacterial inoculation, antimicrobial agent prepared by suspending the test material (therefore polypeptide of sample 22) in 10% of gum arabic solution was orally administered. The administered quantity of suspension was 100 mg/kg. A total of 5 test groups, with each test group containing 5 test mice, were tested. For comparison, antimicrobial agent prepared by suspending vancomycin in 10% of gum arabic solution was orally administered to the test mice under the same conditions.
After the drug administration, test mice were slaughtered approximately 24 hours later, and the contents in the intestine extracted, and the bacterial count of MRSA examined. More specifically, 1.8 mL of physiological saline was added to and mixed with approximately 0.2 g of intestine contents. A fixed quantity of such mixture was smeared on mannitol agar medium (product of Nissui Pharmaceutical Co., Ltd) including gentamicin (GM) with a concentration of […], and cultured for 3 days at 37° C.

[4] = Mueller Hinton Broth with cation, 37° C., turbidity after 24 hours

| Compound | Antimicrobial Activities (MIC) S. aureus ([1]; IFO 12732, 24 h) | Antimicrobial Activities (MIC) E. coli ([2]; IFO 3972, 24 h) | other results |
| --- | --- | --- | --- |
| H-RKKKRKVLMWWMLKPV-NH2 [sample 21, RKKKRKVLMWWMLKPV-CONH2] | – | – | Antimicrobial Activities (MIC) against S. aureus, horse serum concentration 10% (S. aureus): 1.6 µM; antimicrobial activity against S. aureus in the presence of serum, in words (S. aureus; horse serum, Table 3): particularly high antimicrobial activity |
| H-RKKRRQRRRLMWWML-NH2 [sample 19, RKKRRQRRRLMWWML-CONH2] | 6.3 µM | 12.5 µM | – |
| H-RKKKRKVLMWWML-NH2 [sample 2, RKKKRKVLMWWML-CONH2] | 3.1 µM | 12.5 µM | – |
| H-RKRKRKRLMWWML-NH2 [sample 13, RKRKRKRLMWWML-CONH2] | 3.1 µM | 6.3 µM | – |
| H-RKKKRKVLLTAKMR-NH2 [sample 10, RKKKRKVLLTAKMR-CONH2] | 12.5 µM | 50 µM | – |
| LKRKLQRVVYWLL-CONH2 (LKRKLQRVVYWLL-NH2) [sample 22] | – | – | MRSA bacterial quantity in intestine content, administered group 1 ([3]; mice, approximately 24 hours after administration, group 1): 36 ×10^3 cells/g; MRSA bacterial quantity in intestine content, administered group 2 ([3]; mice, approximately 24 hours after administration, group 2): 35 ×10^3 cells/g; MRSA bacterial quantity in intestine content, administered group 3 ([3]; mice, approximately 24 hours after administration, group 3): 30 ×10^3 cells/g; MRSA bacterial quantity in intestine content, administered group 4 ([3]; mice, approximately 24 hours after administration, group 4): 16 ×10^3 cells/g; MRSA bacterial quantity in intestine content, administered group 5 ([3]; mice, approximately 24 hours after administration, group 5): 26 ×10^3 cells/g; MRSA bacterial quantity in intestine content, Average ([3]; mice, average of groups 1-5): 29 ×10^3 cells/g; treatment effect on MRSA-infected mice, in words ([3]; compared with vancomycin): exhibited the same effect as the drug including vancomycin |
| H-RIRKKLRLMWWMLAR-NH2 [sample 7, RIRKKLRLMWWMLAR-CONH2] | 3.1 µM | 6.3 µM | Antimicrobial Activities (MIC) against S. aureus, horse serum concentration 10% (S. aureus): 3.1 µM; Antimicrobial Activities (MIC) against S. aureus, horse serum concentration 20% (S. aureus): 6.3 µM; Antimicrobial Activities (MIC) against S. aureus, horse serum concentration 50% (S. aureus): 6.3 µM |
| H-RIRKKLRYIGSR-NH2 [comparative sample 6, RIRKKLRYIGSR-CONH2, reference compound] | 50 µM | >100 µM | – |
| H-LMWWMLRKKKRKV-NH2 [sample 5, LMWWMLRKKKRKV-CONH2] | 3.1 µM | 50 µM | – |
| H-LKRKLQRLMWWML-NH2 [sample 15, LKRKLQRLMWWML-CONH2] | 3.1 µM | 12.5 µM | Antimicrobial Activities (MIC) against S. aureus, horse serum concentration 10% (S. aureus): 6.3 µM |
| H-RLLTAKMLMWWMLR-NH2 [comparative sample 5, RLLTAKMLMWWMLR-CONH2, reference compound] | 12.5 µM | >100 µM | – |
| H-RIRKKLRLMWWMLR-NH2 [sample 14, RIRKKLRLMWWMLR-CONH2] | 3.1 µM | 6.3 µM | Antimicrobial Activities (MIC) against S. aureus, horse serum concentration 10% (S. aureus): 6.3 µM |
| H-RKKKRKVLMWWMLR-OH [sample 16, RKKKRKVLMWWMLR-COOH] | 3.1 µM | 12.5 µM | Antimicrobial Activities (MIC) against S. aureus, horse serum concentration 10% (S. aureus): 3.1 µM |
| H-LKRKLQRLMWWMLR-NH2 [sample 18, LKRKLQRLMWWMLR-CONH2] | 6.3 µM | 12.5 µM | – |
| H-RKKKRKVLMWWMLAR-NH2 [sample 6, RKKKRKVLMWWMLAR-CONH2] | – | – | Antimicrobial Activities (MIC) S. aureus [1, 4]: 6.3 µM; Antimicrobial Activities (MIC) against S. aureus, horse serum concentration 10% (S. aureus; horse serum 10%): 3.1 µM; Antimicrobial Activities (MIC) against S. aureus, horse serum concentration 20% (S. aureus; horse serum 20%): 3.1 µM; Antimicrobial Activities (MIC) against S. aureus, horse serum concentration 50% (S. aureus; horse serum 50%): 1.6 µM; Antimicrobial Activities (MIC) E. coli [2, 4]: 12.5 µM |
| H-RKKKRKVLYLGAVR-NH2 [sample 12, RKKKRKVLYLGAVR-CONH2] | 12.5 µM | 50 µM | – |
| Ac-RKKKRKVLMWWMLR-NH2 [sample 8, Ac-RKKKRKVLMWWMLR-CONH2] | 3.1 µM | 12.5 µM | Antimicrobial Activities (MIC) against S. aureus, horse serum concentration 10% (S. aureus): 3.1 µM; Antimicrobial Activities (MIC) against S. aureus, horse serum concentration 50% (S. aureus): 6.3 µM |
| polymyxin B [reference compound] | – | – | Antimicrobial Activities (MIC) S. aureus [1, 4]: 6.3 µM; Antimicrobial Activities (MIC) against S. aureus, horse serum concentration 10% (S. aureus; horse serum 10%): 6.3 µM; Antimicrobial Activities (MIC) against S. aureus, horse serum concentration 20% (S. aureus; horse serum 20%): 6.3 µM; Antimicrobial Activities (MIC) against S. aureus, horse serum concentration 50% (S. aureus; horse serum 50%): 3.1 µM; Antimicrobial Activities (MIC) E. coli [2, 4]: 1.6 µM |
| H-RKKKRKVFFYMVIR-NH2 [sample 11, RKKKRKVFFYMVIR-CONH2] | 3.1 µM | 6.3 µM | – |
| H-LMWWMLRIRKKLR-NH2 [sample 4, LMWWMLRIRKKLR-CONH2] | 3.1 µM | 6.3 µM | Antimicrobial Activities (MIC) against S. aureus, horse serum concentration 10% (S. aureus): 6.3 µM |
| H-RGDLMWWMLAR-NH2 [comparative sample 1, RGDLMWWMLAR-CONH2, reference compound] | >100 µM | >100 µM | Antimicrobial Activities (MIC) against S. aureus, horse serum concentration 10% (S. aureus): >50 µM |
| H-RKKKRKVVVYWLLR-NH2 [sample 9, RKKKRKVVVYWLLR-CONH2] | 3.1 µM | 12.5 µM | – |
| H-RAVTLYLGAVAA-NH2 [comparative sample 4, RAVTLYLGAVAA-CONH2, reference compound] | – | – | Antimicrobial Activities (MIC) S. aureus [1, 4]: >100 µM; Antimicrobial Activities (MIC) E. coli [2, 4]: >100 µM |
| H-LMWWMLRIRKKLRVGR-NH2 [sample 20, LMWWMLRIRKKLRVGR-CONH2] | 3.1 µM | 6.3 µM | – |
| H-RKRRLMWWMLKKLR-NH2 [sample 17, RKRRLMWWMLKKLR-CONH2] | 3.1 µM | 6.3 µM | – |
| C[C@@H](O)[C@H](N)C(=O)NCC(=O)N[C@H](C(=O)NCC(N)=O)[C@@H](C)O [comparative sample 2, TGTG-CONH2, reference compound] (H-TGTG-NH2) | >100 µM | >100 µM | – |
| H-LMWWML-NH2 [comparative sample 3, LMWWML-CONH2, reference compound] | >100 µM | >100 µM | – |
| H-RKKKRKVYIGSR-NH2 [comparative sample 7, RKKKRKVYIGSR-CONH2, reference compound] | 12.5 µM | 100 µM | – |
